Assay results reported in ChEMBL document CHEMBL4229426, “Synthesis, antitumor activity evaluation and mechanistic study of novel hederacolchiside A1 derivatives bearing an aryl triazole moiety” (Bioorg Med Chem, 2018).
The source made the active and inactive calls. The rule behind the calls is not given here.

Experiments:
PC-3 = test: Antiproliferative activity against human PC3 cells after 48 hrs by MTT assay; assay type: functional, cell-based; conditions: PC-3, 48 h
HT-29 = test: Antiproliferative activity against human HT-29 cells after 48 hrs by MTT assay; assay type: functional, cell-based; conditions: HT-29, 48 h
HepG2 [1] = test: Antiproliferative activity against human HepG2 cells after 48 hrs by MTT assay; assay type: functional, cell-based; conditions: HepG2, 48 h
A549 = test: Antiproliferative activity against human A549 cells after 48 hrs by MTT assay; assay type: functional, cell-based; conditions: A549, 48 h
HL-60 = test: Antiproliferative activity against human HL60 cells after 48 hrs by MTT assay; assay type: functional, cell-based; conditions: HL-60, 48 h
U-937 = test: Antiproliferative activity against human U937 cells after 48 hrs by MTT assay; assay type: functional, cell-based; conditions: U-937, 48 h
HepG2 [2] = test: Induction of apoptosis in human HepG2 cells assessed as necrotic cells at 0.5 uM after 48 hrs by Annexin V-FITC/propidium iodide staining based flow cytometry (reference value: 0.06%); assay type: functional
HepG2 [3] = test: Induction of apoptosis in human HepG2 cells assessed as late apoptotic cells at 0.5 uM after 48 hrs by Annexin V-FITC/propidium iodide staining based flow cytometry (reference value: 0.02%); assay type: functional
HepG2 [4] = test: Induction of apoptosis in human HepG2 cells assessed as live cells at 0.5 uM after 48 hrs by Annexin V-FITC/propidium iodide staining based flow cytometry (reference value: 95.5%); assay type: functional
HepG2 [5] = test: Induction of apoptosis in human HepG2 cells assessed as early apoptotic cells at 0.5 uM after 48 hrs by Annexin V-FITC/propidium iodide staining based flow cytometry (reference value: 4.42%); assay type: functional
HepG2 [6] = test: Induction of apoptosis in human HepG2 cells assessed as necrotic cells at 1 uM after 48 hrs by Annexin V-FITC/propidium iodide staining based flow cytometry (reference value: 0.06%); assay type: functional
HepG2 [7] = test: Induction of apoptosis in human HepG2 cells assessed as late apoptotic cells at 1 uM after 48 hrs by Annexin V-FITC/propidium iodide staining based flow cytometry (reference value: 0.02%); assay type: functional
HepG2 [8] = test: Induction of apoptosis in human HepG2 cells assessed as live cells at 1 uM after 48 hrs by Annexin V-FITC/propidium iodide staining based flow cytometry (reference value: 95.5%); assay type: functional
HepG2 [9] = test: Induction of apoptosis in human HepG2 cells assessed as early apoptotic cells at 1 uM after 48 hrs by Annexin V-FITC/propidium iodide staining based flow cytometry (reference value: 4.42%); assay type: functional
HepG2 [10] = test: Induction of apoptosis in human HepG2 cells assessed as necrotic cells at 2 uM after 48 hrs by Annexin V-FITC/propidium iodide staining based flow cytometry (reference value: 0.06%); assay type: functional
HepG2 [11] = test: Induction of apoptosis in human HepG2 cells assessed as late apoptotic cells at 2 uM after 48 hrs by Annexin V-FITC/propidium iodide staining based flow cytometry (reference value: 0.02%); assay type: functional
HepG2 [12] = test: Induction of apoptosis in human HepG2 cells assessed as live cells at 2 uM after 48 hrs by Annexin V-FITC/propidium iodide staining based flow cytometry (reference value: 95.5%); assay type: functional
HepG2 [13] = test: Induction of apoptosis in human HepG2 cells assessed as early apoptotic cells at 2 uM after 48 hrs by Annexin V-FITC/propidium iodide staining based flow cytometry (reference value: 4.42%); assay type: functional
HepG2 [14] = test: Cell cycle arrest in human HepG2 cells after 48 hrs by propidium iodide staining based flow cytometry; assay type: functional
HepG2 [15] = test: Cell cycle arrest in human HepG2 cells assessed as accumulation at G1-phase at 0.5 uM after 48 hrs by propidium iodide staining based flow cytometry (reference value: 40.6%); assay type: functional
HepG2 [16] = test: Cell cycle arrest in human HepG2 cells assessed as accumulation at G2-phase at 0.5 uM after 48 hrs by propidium iodide staining based flow cytometry (reference value: 32.61%); assay type: functional
HepG2 [17] = test: Cell cycle arrest in human HepG2 cells assessed as accumulation at S-phase at 0.5 uM after 48 hrs by propidium iodide staining based flow cytometry (reference value: 26.79%); assay type: functional
HepG2 [18] = test: Cell cycle arrest in human HepG2 cells assessed as accumulation at G1-phase at 1 uM after 48 hrs by propidium iodide staining based flow cytometry (reference value: 40.6%); assay type: functional
HepG2 [19] = test: Cell cycle arrest in human HepG2 cells assessed as accumulation at G2-phase at 1 uM after 48 hrs by propidium iodide staining based flow cytometry (reference value: 32.61%); assay type: functional
HepG2 [20] = test: Cell cycle arrest in human HepG2 cells assessed as accumulation at S-phase at 1 uM after 48 hrs by propidium iodide staining based flow cytometry (reference value: 26.79%); assay type: functional
HepG2 [21] = test: Cell cycle arrest in human HepG2 cells assessed as accumulation at G1-phase at 2 uM after 48 hrs by propidium iodide staining based flow cytometry (reference value: 40.6%); assay type: functional
HepG2 [22] = test: Cell cycle arrest in human HepG2 cells assessed as accumulation at G2-phase at 2 uM after 48 hrs by propidium iodide staining based flow cytometry (reference value: 32.61%); assay type: functional
HepG2 [23] = test: Cell cycle arrest in human HepG2 cells assessed as accumulation at S-phase at 2 uM after 48 hrs by propidium iodide staining based flow cytometry (reference value: 26.79%); assay type: functional
HepG2 [24] = test: Induction of mitochondrial membrane depolarization in human HepG2 cells at 0.5 uM after 48 hrs by JC-1 staining based flow cytometry (reference value: 1.3%); assay type: functional
HepG2 [25] = test: Induction of mitochondrial membrane depolarization in human HepG2 cells at 1 uM after 48 hrs by JC-1 staining based flow cytometry (reference value: 1.3%); assay type: functional
HepG2 [26] = test: Induction of mitochondrial membrane depolarization in human HepG2 cells at 2 uM after 48 hrs by JC-1 staining based flow cytometry (reference value: 1.3%); assay type: functional
HepG2 [27] = test: Induction of mitochondrial membrane depolarization in human HepG2 cells after 48 hrs by JC-1 staining based flow cytometry; assay type: functional, cell-based
HepG2 [28] = test: Upregulation of cytochrome-c protein expression in human HepG2 cells assessed as ratio of cytochrome-c to GAPDH expression level at 0.5 to 2 uM after 48 hrs by Western blot analysis (reference value: 0.05); assay type: functional
HepG2 [29] = test: Upregulation of cytochrome-c protein expression in human HepG2 cells after 48 hrs by Western blot analysis; assay type: functional, cell-based
HepG2 [30] = test: Downregulation of Bcl2 protein expression in human HepG2 cells assessed as ratio of Bcl2 to GAPDH expression level at 0.5 uM after 48 hrs by Western blot analysis (reference value: 0.97); assay type: functional
HepG2 [31] = test: Downregulation of Bcl2 protein expression in human HepG2 cells assessed as ratio of Bcl2 to GAPDH expression level at 1 uM after 48 hrs by Western blot analysis (reference value: 0.97); assay type: functional
HepG2 [32] = test: Downregulation of Bcl2 protein expression in human HepG2 cells assessed as ratio of Bcl2 to GAPDH expression level at 2 uM after 48 hrs by Western blot analysis (reference value: 0.97); assay type: functional
HepG2 [33] = test: Upregulation of caspase-3 protein expression in human HepG2 cells assessed as ratio of caspase-3 to GAPDH expression level at 2 uM after 48 hrs by Western blot analysis (reference value: 0.25); assay type: functional
HepG2 [34] = test: Upregulation of caspase-9 protein expression in human HepG2 cells assessed as ratio of caspase-9 to GAPDH expression level at 1 uM after 48 hrs by Western blot analysis (reference value: 0.17); assay type: functional
HepG2 [35] = test: Upregulation of caspase-9 protein expression in human HepG2 cells at 2 uM after 48 hrs by Western blot analysis; assay type: functional, cell-based

Cc1ccc(-n2cc(CNC(=O)[C@]34CCC(C)(C)C[C@H]3C3=CC[C@@H]5[C@@]6(C)CC[C@H](O[C@@H]7OC[C@H](O[C@@H]8O[C@H](CO)[C@@H](O)[C@H](O)[C@H]8O)[C@H](O)[C@H]7O[C@@H]7O[C@@H](C)[C@H](O)[C@@H](O)[C@H]7O)C(C)(C)[C@@H]6CC[C@@]5(C)[C@]3(C)CC4)nn2)cc1
IC50 (PC-3): 0.54 µM
IC50 (HT-29): 0.93 µM
IC50 (HepG2 [1]): 0.54 µM
IC50 (A549): 2.66 µM
IC50 (HL-60): 0.81 µM
IC50 (U-937): 0.73 µM
Activity (HepG2 [2]): 0.3%
Activity (HepG2 [3]): 6.89%
Activity (HepG2 [4]): 74.94%
Activity (HepG2 [5]): 17.87%
Activity (HepG2 [6]): 0.56%
Activity (HepG2 [7]): 21.58%
Activity (HepG2 [8]): 53.1%
Activity (HepG2 [9]): 24.76%
Activity (HepG2 [10]): 1.51%
Activity (HepG2 [11]): 35.77%
Activity (HepG2 [12]): 41.56%
Activity (HepG2 [13]): 21.07%
Activity (HepG2 [14]): Dose-dependent effect
Activity (HepG2 [15]): 48.7%
Activity (HepG2 [16]): 18.01%
Activity (HepG2 [17]): 33.29%
Activity (HepG2 [18]): 48.4%
Activity (HepG2 [19]): 15.68%
Activity (HepG2 [20]): 35.92%
Activity (HepG2 [21]): 49.35%
Activity (HepG2 [22]): 11.33%
Activity (HepG2 [23]): 39.32%
Activity (HepG2 [24]): 15.98%
Activity (HepG2 [25]): 33.51%
Activity (HepG2 [26]): 54.12%
Activity (HepG2 [27]): Dose-dependent effect
Ratio (HepG2 [28]): 0.4
Activity (HepG2 [29]): Dose-dependent effect
Ratio (HepG2 [30]): 0.64
Ratio (HepG2 [31]): 0.47
Ratio (HepG2 [32]): 0.19
Ratio (HepG2 [33]): 0.63
Ratio (HepG2 [34]): 0.45
Activity (HepG2 [35]): Active
